Data on 19 compounds can be found in patent publication US20220153746A1, “NITROGEN OXIDE-DONATING PDE-5 AND/OR PDE-6 INHIBITOR COMPOUNDS, AND USES THEREOF” (ILDONG PHARMACEUTICAL CO., LTD., priority 2020, published 2022).

Like-named read-outs stand apart in the source and are kept apart here. Some results are limits rather than exact numbers.

In general, IC50 refers to the midpoint of a concentration-inhibition curve.

In one experiment the target is human PDE-5A1 (Homo sapiens, UniProt O76074). As to the kind of experiment: Human PDE-5A1 inhibition assay (fluorescence polarization, FAM-cGMP). It is filed as biochemical.
In the next experiment the target is human PDE-6C (Homo sapiens, UniProt P51160). As to the kind of experiment: Human PDE-6C inhibition assay (fluorescence polarization, FAM-cGMP). Type of experiment: biochemical. In general terms: Fluorescence polarisation rises when a labelled molecule tumbles more slowly, as on binding a larger partner.
Sequence of human PDE-6C (P51160 whole entry): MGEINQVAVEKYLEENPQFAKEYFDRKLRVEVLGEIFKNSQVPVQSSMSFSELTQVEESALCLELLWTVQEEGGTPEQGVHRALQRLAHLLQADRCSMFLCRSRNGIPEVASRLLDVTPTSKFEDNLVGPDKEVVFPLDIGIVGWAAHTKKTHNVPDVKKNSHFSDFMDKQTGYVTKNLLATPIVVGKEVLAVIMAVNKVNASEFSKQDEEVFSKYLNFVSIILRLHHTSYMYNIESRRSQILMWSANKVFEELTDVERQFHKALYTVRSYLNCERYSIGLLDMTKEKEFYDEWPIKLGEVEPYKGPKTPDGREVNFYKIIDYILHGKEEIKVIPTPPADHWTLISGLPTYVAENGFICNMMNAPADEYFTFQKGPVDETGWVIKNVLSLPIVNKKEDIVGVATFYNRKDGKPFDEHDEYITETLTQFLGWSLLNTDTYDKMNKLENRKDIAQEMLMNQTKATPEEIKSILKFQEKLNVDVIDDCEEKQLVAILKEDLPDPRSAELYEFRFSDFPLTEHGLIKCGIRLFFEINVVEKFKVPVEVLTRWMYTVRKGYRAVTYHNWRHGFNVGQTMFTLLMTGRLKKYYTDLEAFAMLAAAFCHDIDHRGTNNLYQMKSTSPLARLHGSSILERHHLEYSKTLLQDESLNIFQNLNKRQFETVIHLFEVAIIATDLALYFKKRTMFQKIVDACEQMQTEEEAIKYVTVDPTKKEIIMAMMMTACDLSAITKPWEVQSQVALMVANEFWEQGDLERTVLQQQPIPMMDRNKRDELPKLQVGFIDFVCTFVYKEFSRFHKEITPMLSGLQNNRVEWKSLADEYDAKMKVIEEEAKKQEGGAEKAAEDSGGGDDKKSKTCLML

Turning to `CCCc1nn(C)c2c(=O)[nH]c(-c3cc(S(=O)(=O)N4CC(N5CC(O)C5)C4)ccc3OCC)nc12` [Compound 31, 5-(2-ethoxy-5-((3-hydroxy-[1,3′-biazetidin]-1′-yl)sulfonyl)phenyl)-1-methyl-3-propyl-1,6-dihydro-7H-pyrazolo [4,3-d]pyrimidin-7-one], the IC50 was 0.01 to 0.1 µM at human PDE-5A1 (read-out: IC50 (μM) PDE5A1) and under 0.01 µM at human PDE-6C (read-out: IC50 (μM) PDE6C).

For `CCCc1nn(C)c2c(=O)[nH]c(-c3cc(S(=O)(=O)N4CC(N5CC(CO)C5)C4)ccc3OCC)nc12` [Compound 32, 5-(2-ethoxy-5-((3-(hydroxymethyl)-[1,3′-biazetidin]-1′-yl)sulfonyl)phenyl)-1-methyl-3-propyl-1,6-dihydro-7H-pyrazolo[4,3-d]pyrimidin-7-one], the IC50 on human PDE-5A1 (read-out: IC50 (μM) PDE5A1) is under 0.01 µM; at human PDE-6C (read-out: IC50 (μM) PDE6C) it was 0.01 to 0.1 µM.

For `CCCc1nn(C)c2c(=O)[nH]c(-c3cc(S(=O)(=O)N4CC(N5CC(CCO)C5)C4)ccc3OCC)nc12` [Compound 33, 5-(2-ethoxy-5-((3-(2-hydroxyethyl)-[1,3′-biazetidin]-1′-yl)sulfonyl)phenyl)-1-methyl-3-propyl-1,6-dihydro-7H-pyrazolo[4,3-d]pyrimidin-7-one], the IC50 at human PDE-5A1 (read-out: IC50 (μM) PDE5A1) and at human PDE-6C (read-out: IC50 (μM) PDE6C) was under 0.01 µM throughout.

Take `CCCc1nn(C)c2c(=O)[nH]c(-c3cc(S(=O)(=O)N4CC(OCCO[N+](=O)[O-])C4)ccc3OCC)nc12` [Compound 34, 2-((1-((4-ethoxy-3-(1-methyl-7-oxo-3-propyl-6,7-dihydro-1H-pyrazolo[4,3-d]pyrimidin-5-yl)phenyl)sulfonyl)azetidin-3-yl)oxy)ethyl nitrate]: the IC50 is 0.01 to 0.1 µM on human PDE-5A1 (read-out: IC50 (μM) PDE5A1) and under 0.01 µM at human PDE-6C (read-out: IC50 (μM) PDE6C).

Consider `CCCc1nn(C)c2c(=O)[nH]c(-c3cc(S(=O)(=O)N4CC(OCCCO[N+](=O)[O-])C4)ccc3OCC)nc12` [Compound 35, 3-((1-((4-ethoxy-3-(1-methyl-7-oxo-3-propyl-6,7-dihydro-1H-pyrazolo[4,3-d]pyrimidin-5-yl)phenyl)sulfonyl)azetidin-3-yl)oxy)propyl nitrate], for which the values for the IC50 on human PDE-5A1 (read-out: IC50 (μM) PDE5A1) and at human PDE-6C (read-out: IC50 (μM) PDE6C) were 0.01 to 0.1 µM and under 0.01 µM, respectively.

For `CCCc1nn(C)c2c(=O)[nH]c(-c3cc(S(=O)(=O)N4CC(OCCCCO[N+](=O)[O-])C4)ccc3OCC)nc12` [Compound 36, 4-((1-((4-ethoxy-3-(1-methyl-7-oxo-3-propyl-6,7-dihydro-1H-pyrazolo[4,3-d]pyrimidin-5-yl)phenyl)sulfonyl)azetidin-3-yl)oxy)butyl nitrate], the IC50 at human PDE-5A1 (read-out: IC50 (μM) PDE5A1) and on human PDE-6C (read-out: IC50 (μM) PDE6C) was 0.01 to 0.1 µM throughout.

`CCCc1nn(C)c2c(=O)[nH]c(-c3cc(S(=O)(=O)N4CC(CN5CC(CO[N+](=O)[O-])C5)C4)ccc3OCC)nc12` [Compound 37, (1-((1-((4-ethoxy-3-(1-methyl-7-oxo-3-propyl-6,7-dihydro-1H-pyrazolo[4,3-d]pyrimidin-5-yl)phenyl)sulfonyl)azetidin-3-yl)methyl)azetidin-3-yl)methyl nitrate]: the IC50 at human PDE-5A1 (read-out: IC50 (μM) PDE5A1) and on human PDE-6C (read-out: IC50 (μM) PDE6C) was 0.01 to 0.1 µM throughout.

`CCCc1nn(C)c2c(=O)[nH]c(-c3cc(S(=O)(=O)N4CC(N(CCCO[N+](=O)[O-])CCCO[N+](=O)[O-])C4)ccc3OCC)nc12` [Compound 38, ((1-((4-ethoxy-3-(1-methyl-7-oxo-3-propyl-6,7-dihydro-1H-pyrazolo[4,3-d]pyrimidin-5-yl)phenyl)sulfonyl)azetidin-3-yl)azanediyl)bis(propane-3,1-diyl) dinitrate]: the IC50 against human PDE-5A1 and at human PDE-6C was 0.01 to 0.1 µM throughout.

For `CCCc1nn(C)c2c(=O)[nH]c(-c3cc(S(=O)(=O)N4CC(N5CC(O[N+](=O)[O-])C5)C4)ccc3OCC)nc12` [Compound 39, 1′-((4-ethoxy-3-(1-methyl-7-oxo-3-propyl-6,7-dihydro-1H-pyrazolo[4,3-d]pyrimidin-5-yl)phenyl)sulfonyl)-[1,3′-biazetidin]-3-yl nitrate], the IC50 at human PDE-5A1 (read-out: IC50 (μM) PDE5A1) and at human PDE-6C (read-out: IC50 (μM) PDE6C) was under 0.01 µM throughout.

Regarding `CCCc1nn(C)c2c(=O)[nH]c(-c3cc(S(=O)(=O)N4CC(N5CC(CO[N+](=O)[O-])C5)C4)ccc3OCC)nc12` [Compound 40, (1′-((4-ethoxy-3-(1-methyl-7-oxo-3-propyl-6,7-dihydro-1H-pyrazolo[4,3-d]pyrimidin-5-yl)phenyl)sulfonyl)-[1,3′-biazetidin]-3-yl)methyl nitrate], the figures for the 50% inhibitory concentration (IC50) at human PDE-5A1 (read-out: IC50 (μM) PDE5A1) and on human PDE-6C (read-out: IC50 (μM) PDE6C) were 0.01 to 0.1 µM and under 0.01 µM, respectively.

On to `CCCc1nn(C)c2c(=O)[nH]c(-c3cc(S(=O)(=O)N4CC(CCCOC(=O)CCCCCO[N+](=O)[O-])C4)ccc3OCC)nc12` [Compound 65, 3-(1-((4-ethoxy-3-(1-methyl-7-oxo-3-propyl-6,7-dihydro-1H-pyrazolo[4,3-d]pyrimidin-5-yl)phenyl)sulfonyl)azetidin-3-yl)propyl 6-(nitrooxy)hexanoate], for which the IC50 at human PDE-5A1 (read-out: IC50 (μM) PDE5A1) and at human PDE-6C (read-out: IC50 (μM) PDE6C) was under 0.01 µM in each case.

`CCCc1nn(C)c2c(=O)[nH]c(-c3cc(S(=O)(=O)N4CC(NCCOC(=O)CCCCO[N+](=O)[O-])C4)ccc3OCC)nc12` [Compound 66, 2-((1-((4-ethoxy-3-(1-methyl-7-oxo-3-propyl-6,7-dihydro-1H-pyrazolo[4,3-d]pyrimidin-5-yl)phenyl)sulfonyl)azetidin-3-yl)amino)ethyl 5-(nitrooxy)pentanoate]: the IC50 on human PDE-5A1 (read-out: IC50 (μM) PDE5A1) and at human PDE-6C (read-out: IC50 (μM) PDE6C) was under 0.01 µM throughout.

As for `CCCc1nn(C)c2c(=O)[nH]c(-c3cc(S(=O)(=O)N4CC(N(C)CCOC(=O)CCCCCO[N+](=O)[O-])C4)ccc3OCC)nc12` [Compound 67, 2-((1-((4-ethoxy-3-(1-methyl-7-oxo-3-propyl-6,7-dihydro-1H-pyrazolo[4,3-d]pyrimidin-5-yl)phenyl)sulfonyl)azetidin-3-yl)(methyl)amino)ethyl 6-(nitrooxy)hexanoate], the IC50 at human PDE-5A1 (read-out: IC50 (μM) PDE5A1) and on human PDE-6C (read-out: IC50 (μM) PDE6C) was under 0.01 µM each time.

Take `CCCc1nn(C)c2c(=O)[nH]c(-c3cc(S(=O)(=O)N4CC(CCCOC(=O)CCCCC(CO[N+](=O)[O-])O[N+](=O)[O-])C4)ccc3OCC)nc12` (centres unmarked) [Compound 68, 3-(1-((4-ethoxy-3-(1-methyl-7-oxo-3-propyl-6,7-dihydro-1H-pyrazolo[4,3-d]pyrimidin-5-yl)phenyl)sulfonyl)azetidin-3-yl)propyl 6,7-bis(nitrooxy)heptanoate]: the IC50 is 0.01 to 0.1 µM against human PDE-5A1 and under 0.01 µM against human PDE-6C.

Regarding `CCCc1nn(C)c2c(=O)[nH]c(-c3cc(S(=O)(=O)N4CC(NCCOC(=O)CCCCC(CO[N+](=O)[O-])O[N+](=O)[O-])C4)ccc3OCC)nc12` (centres unmarked) [Compound 69, 2-((1-((4-ethoxy-3-(1-methyl-7-oxo-3-propyl-6,7-dihydro-1H-pyrazolo[4,3-d]pyrimidin-5-yl)phenyl)sulfonyl)azetidin-3-yl)amino)ethyl 6,7-bis(nitrooxy)heptanoate], the IC50 against human PDE-5A1 and at human PDE-6C was under 0.01 µM throughout.

With `CCCc1nn(C)c2c(=O)[nH]c(-c3cc(S(=O)(=O)N4CC(N(C)CCOC(=O)CCCCC(CO[N+](=O)[O-])O[N+](=O)[O-])C4)ccc3OCC)nc12` (centres unmarked) [Compound 70, 2-((1-((4-ethoxy-3-(1-methyl-7-oxo-3-propyl-6,7-dihydro-1H-pyrazolo[4,3-d]pyrimidin-5-yl)phenyl)sulfonyl)azetidin-3-yl)(methyl)amino)ethyl 6,7-bis(nitrooxy)heptanoate], the IC50 against human PDE-5A1 and on human PDE-6C was under 0.01 µM in each case.

Regarding `CCCc1nn(C)c2c(=O)[nH]c(-c3cc(S(=O)(=O)N4CC(CCCOC(=O)CCCCO[N+](=O)[O-])C4)ccc3OCC)nc12` [Compound 71, 3-(1-((4-ethoxy-3-(1-methyl-7-oxo-3-propyl-6,7-dihydro-1H-pyrazolo[4,3-d]pyrimidin-5-yl)phenyl)sulfonyl)azetidin-3-yl)propyl 5-(nitrooxy)pentanoate], the IC50 at human PDE-5A1 (read-out: IC50 (μM) PDE5A1) and at human PDE-6C (read-out: IC50 (μM) PDE6C) was under 0.01 µM each time.

Regarding `CCCc1nn(C)c2c(=O)[nH]c(-c3cc(S(=O)(=O)N4CC(CCCOC(=O)CCCO[N+](=O)[O-])C4)ccc3OCC)nc12` [Compound 72, 3-(1-((4-ethoxy-3-(1-methyl-7-oxo-3-propyl-6,7-dihydro-1H-pyrazolo[4,3-d]pyrimidin-5-yl)phenyl)sulfonyl)azetidin-3-yl)propyl 4-(nitrooxy)butanoate], the IC50 at human PDE-5A1 (read-out: IC50 (μM) PDE5A1) and at human PDE-6C (read-out: IC50 (μM) PDE6C) was under 0.01 µM each time.

In the case of `CCCc1nn(C)c2c(=O)[nH]c(-c3cc(S(=O)(=O)N4CC(CCCOC(=O)CCC(CO[N+](=O)[O-])O[N+](=O)[O-])C4)ccc3OCC)nc12` (centres unmarked) [Compound 73, 3-(1-((4-ethoxy-3-(1-methyl-7-oxo-3-propyl-6,7-dihydro-1H-pyrazolo[4,3-d]pyrimidin-5-yl)phenyl)sulfonyl)azetidin-3-yl)propyl 4,5-bis(nitrooxy)pentanoate], the IC50 against human PDE-5A1 and at human PDE-6C was under 0.01 µM each time.
